The record followed here is ChEMBL document CHEMBL1201862, “PubChem BioAssay data set” (2004).

Calls of active or inactive are those of the source.

Assay [1] deals with Large T antigen (Simian virus 40, UniProt P03070). In kind it is functional, Betapolyomavirus macacae.
For assay [2], the target named is Induced myeloid leukemia cell differentiation protein Mcl-1 (Homo sapiens, UniProt Q07820). In kind it is functional.
Assay [3] can be described thus: NIH-3T3 fibroblast cytotoxicity, dose response, cytotoxicity control, cell-based, fluorescence, Alamar Blue, secondary assay (AID 2327).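 Further: NIH-3T3 mouse fibroblasts cultured with fluconazole at 8 µg/mL.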 Type of assay: functional.
Assay [4] concerns the target Paired box protein Pax-8 (Homo sapiens, UniProt Q06710). As to the kind of experiment: PAX8 transcriptional activity inhibition in RMG-I – RMG-I cells, luciferase, cherry-pick, dose response (AID 687027).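 Further: luciferase reporter driven by Pax8 target thyroperoxidase promoter measured by SteadyGlo luminescence.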 In kind it is functional, cell-based.
Assay [5] is described as follows: reduction of Shn3 3'UTR-driven luciferase in osteoblasts – cell-based, Clone20 osteoblasts, firefly luciferase, cherry-picked, dose response (AID 624132).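 Further: firefly luciferase luminescence from reporter carrying the Shn3 3'UTR in osteoblasts.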 Type of assay: functional.
The nature of assay [6]: non-specific 3'UTR reporter inhibition in Clone20-Shn3RL – cell-based, Renilla luciferase, cherry-picked, counter-screen for Shn3 inhibitor project, dose response (AID 624133). In kind it is functional.
Assay [7] concerns the target T1, Short transient receptor potential channel 4 (Mus musculus, UniProt Q9QUQ5).
T1 sequence (Q9QUQ5 whole entry): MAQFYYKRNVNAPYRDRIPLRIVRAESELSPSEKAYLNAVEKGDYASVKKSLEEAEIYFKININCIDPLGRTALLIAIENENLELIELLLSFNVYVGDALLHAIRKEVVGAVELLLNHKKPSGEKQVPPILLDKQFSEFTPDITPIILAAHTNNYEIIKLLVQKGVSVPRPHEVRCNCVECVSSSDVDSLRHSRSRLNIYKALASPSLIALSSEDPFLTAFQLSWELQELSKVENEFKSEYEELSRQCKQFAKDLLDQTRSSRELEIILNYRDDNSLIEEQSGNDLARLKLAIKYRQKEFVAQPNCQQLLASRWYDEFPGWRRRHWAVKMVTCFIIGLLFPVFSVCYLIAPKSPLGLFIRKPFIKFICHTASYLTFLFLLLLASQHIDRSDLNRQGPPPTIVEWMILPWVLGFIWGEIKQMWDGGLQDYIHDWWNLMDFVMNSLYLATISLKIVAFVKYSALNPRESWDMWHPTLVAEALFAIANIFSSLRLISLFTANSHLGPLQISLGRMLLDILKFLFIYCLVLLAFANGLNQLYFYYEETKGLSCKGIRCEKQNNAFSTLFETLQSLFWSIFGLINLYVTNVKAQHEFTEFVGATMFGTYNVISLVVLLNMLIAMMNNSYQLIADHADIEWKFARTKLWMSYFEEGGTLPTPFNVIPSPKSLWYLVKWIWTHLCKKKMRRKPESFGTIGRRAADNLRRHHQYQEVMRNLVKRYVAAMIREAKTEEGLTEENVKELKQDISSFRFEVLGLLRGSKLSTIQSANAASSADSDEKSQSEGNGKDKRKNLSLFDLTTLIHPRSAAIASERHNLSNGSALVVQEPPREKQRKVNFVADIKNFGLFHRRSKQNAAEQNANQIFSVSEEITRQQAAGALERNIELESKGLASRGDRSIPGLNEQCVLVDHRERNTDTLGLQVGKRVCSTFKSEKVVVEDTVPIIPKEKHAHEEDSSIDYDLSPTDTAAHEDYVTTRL
The assay can be described thus: block of DAMGO-driven TRPC4 calcium entry – cell-based, HEK293 TRPC4/mu-opioid, Fluo-4 calcium, dose response (AID 434942).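 Further: potency of inhibitors blocking the TRPC4 calcium response.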 Type of assay: functional.

Assay [8] concerns the target Cytochrome P450 2C19 (Homo sapiens, UniProt P33261). The assay can be described thus: Cytochrome panel assay with activity outcomes. Panel member name: p450-cyp2c19 Compounds with AC50 equal or less than 10 uM are considered active. In kind it is functional. The conditions noted are these: read-out: AC50.
In assay [9] the target is T2, Heat shock factor protein 1 (Mus musculus, UniProt P38532).
T2 sequence (P38532 whole entry): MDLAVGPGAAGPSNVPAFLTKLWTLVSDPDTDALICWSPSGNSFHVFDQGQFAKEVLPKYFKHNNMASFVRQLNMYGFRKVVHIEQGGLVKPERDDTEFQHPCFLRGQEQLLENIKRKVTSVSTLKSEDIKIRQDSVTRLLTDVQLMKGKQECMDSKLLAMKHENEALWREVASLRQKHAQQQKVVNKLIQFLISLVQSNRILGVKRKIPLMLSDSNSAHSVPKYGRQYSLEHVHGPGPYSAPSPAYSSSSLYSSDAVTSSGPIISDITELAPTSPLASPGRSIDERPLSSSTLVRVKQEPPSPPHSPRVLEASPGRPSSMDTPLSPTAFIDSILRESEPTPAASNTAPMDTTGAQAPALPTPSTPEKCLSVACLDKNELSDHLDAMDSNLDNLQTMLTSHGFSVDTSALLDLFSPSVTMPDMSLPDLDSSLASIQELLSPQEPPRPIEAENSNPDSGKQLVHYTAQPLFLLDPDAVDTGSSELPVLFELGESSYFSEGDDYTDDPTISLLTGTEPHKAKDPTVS
The assay can be described thus: enhancement of HSF1-driven luciferase signal – cell-based, NIH3T3, luminescence, dose retest, confirmation (AID 435004).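 Further: stress induced by proteasome inhibitor MG132 added 30 min after compound; luciferase reporter driven by HSF1 response element in NIH3T3 cells; actives raise luminescence as potentiators of the MG132 stress response.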 Type of assay: functional.

Assay [10] in a line: Trypanosoma cruzi growth suppression in host cells – NIH3T3 host cells, beta-gal luminescence, confirmation (AID 2044).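 Further: intracellular parasites grown in NIH/3T3 mouse fibroblasts as host cells; luminescent beta-galactosidase reporter signal from transgenic T. cruzi replicating inside host cells; inhibitors lower the luminescence signal.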 In kind it is functional, cell-based.
A short description of assay [11]: NIH3T3 cell viability loss – ATP luminescence, mouse fibroblasts, counter-screen, dose response (AID 2010).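 Further: cells exposed to compound for about 90 hours before reading.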 In kind it is functional, cell-based.
Assay [12] deals with T3, Protein skinhead-1 (Caenorhabditis elegans, UniProt P34707).
T3 sequence (P34707 whole entry): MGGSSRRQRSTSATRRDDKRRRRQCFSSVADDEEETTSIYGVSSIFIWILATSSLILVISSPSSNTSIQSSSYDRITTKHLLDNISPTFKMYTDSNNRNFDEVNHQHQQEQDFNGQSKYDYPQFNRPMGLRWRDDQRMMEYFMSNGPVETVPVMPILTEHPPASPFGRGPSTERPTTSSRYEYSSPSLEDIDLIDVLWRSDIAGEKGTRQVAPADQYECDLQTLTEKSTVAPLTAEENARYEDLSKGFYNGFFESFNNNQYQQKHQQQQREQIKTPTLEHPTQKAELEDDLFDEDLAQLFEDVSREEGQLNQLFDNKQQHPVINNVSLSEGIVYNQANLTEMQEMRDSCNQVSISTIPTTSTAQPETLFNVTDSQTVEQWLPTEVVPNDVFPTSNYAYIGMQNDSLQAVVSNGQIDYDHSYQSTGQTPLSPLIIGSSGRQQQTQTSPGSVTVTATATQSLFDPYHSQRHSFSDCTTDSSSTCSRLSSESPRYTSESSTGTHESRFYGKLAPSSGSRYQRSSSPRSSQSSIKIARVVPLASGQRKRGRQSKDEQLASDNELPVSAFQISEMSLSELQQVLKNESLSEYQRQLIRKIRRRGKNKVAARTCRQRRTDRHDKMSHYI
In kind it is functional.

The nature of assay [13]: HIV-1 AD8 envelope cell-cell fusion blockers – cherry-pick, dose response (AID 652062).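 Further: luciferase signal from cell-cell fusion driven by HIV-1 clade B AD8 Env; potency is for inhibitors of fusion seen as a drop in luminescence.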 In kind it is functional, cell-based.
The nature of assay [14]: blockers of HIV-1 envelope-mediated cell-cell fusion – cherry-pick, dose response (AID 652057). In kind it is functional, cell-based.
Assay [15] concerns the target Luciferin 4-monooxygenase (Photinus pyralis, UniProt P08659). The assay can be described thus: inhibition of purified Photinus pyralis luciferase – biochemical, luminescence, dose response (AID 1891).
Assay [16] is described as follows: Luminescence Cell-Based Dose Confirmation HTS to Identify Inhibitors of Platelet Dense Granule Release. [Related pubchem assays: 1663 (Primary HTS), 1678 (Summary of Project)]. In kind it is functional.
Assay [17] has as its target T4, Rac GTPase-activating protein 1 (Homo sapiens, UniProt Q9H0H5).
T4 sequence (Q9H0H5 whole entry): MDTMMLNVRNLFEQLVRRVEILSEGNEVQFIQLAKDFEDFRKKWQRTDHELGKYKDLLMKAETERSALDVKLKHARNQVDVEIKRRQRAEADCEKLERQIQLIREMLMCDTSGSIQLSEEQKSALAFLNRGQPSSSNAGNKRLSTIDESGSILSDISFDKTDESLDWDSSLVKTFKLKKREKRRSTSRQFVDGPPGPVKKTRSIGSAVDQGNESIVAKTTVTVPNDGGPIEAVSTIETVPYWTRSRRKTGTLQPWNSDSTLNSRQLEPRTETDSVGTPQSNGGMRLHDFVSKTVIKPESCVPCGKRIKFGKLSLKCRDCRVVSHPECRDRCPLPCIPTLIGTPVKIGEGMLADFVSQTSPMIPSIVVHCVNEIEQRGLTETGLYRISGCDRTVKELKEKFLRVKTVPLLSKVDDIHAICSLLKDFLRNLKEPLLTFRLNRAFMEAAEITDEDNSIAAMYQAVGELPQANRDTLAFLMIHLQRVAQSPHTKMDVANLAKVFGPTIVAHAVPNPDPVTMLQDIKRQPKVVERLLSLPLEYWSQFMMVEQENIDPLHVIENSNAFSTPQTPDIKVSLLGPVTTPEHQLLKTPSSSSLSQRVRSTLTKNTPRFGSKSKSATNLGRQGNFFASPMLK
The assay can be described thus: blockers of MgcRacGAP-driven Rac1 GTP hydrolysis – biochemical, ADP Hunter fluorescence, primary and confirmatory, confirmation (AID 624330). Type of assay: functional.

Assay [18] can be described thus: P. falciparum Dd2 growth inhibitors, dose response, SYBR Green, cherry-picked samples (AID 1159567). In kind it is functional, cell-based.

Sequence of Induced myeloid leukemia cell differentiation protein Mcl-1 (Q07820 whole entry): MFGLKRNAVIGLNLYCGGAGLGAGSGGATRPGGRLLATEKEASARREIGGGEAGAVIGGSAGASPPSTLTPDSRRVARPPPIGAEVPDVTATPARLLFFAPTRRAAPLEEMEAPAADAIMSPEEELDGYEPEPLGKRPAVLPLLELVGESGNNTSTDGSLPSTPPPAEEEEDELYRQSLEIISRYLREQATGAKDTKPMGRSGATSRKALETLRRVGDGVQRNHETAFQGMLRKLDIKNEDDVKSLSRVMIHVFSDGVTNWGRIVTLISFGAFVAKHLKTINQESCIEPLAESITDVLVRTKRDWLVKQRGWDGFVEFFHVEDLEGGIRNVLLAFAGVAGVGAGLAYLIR
Sequence of Large T antigen (P03070 whole entry): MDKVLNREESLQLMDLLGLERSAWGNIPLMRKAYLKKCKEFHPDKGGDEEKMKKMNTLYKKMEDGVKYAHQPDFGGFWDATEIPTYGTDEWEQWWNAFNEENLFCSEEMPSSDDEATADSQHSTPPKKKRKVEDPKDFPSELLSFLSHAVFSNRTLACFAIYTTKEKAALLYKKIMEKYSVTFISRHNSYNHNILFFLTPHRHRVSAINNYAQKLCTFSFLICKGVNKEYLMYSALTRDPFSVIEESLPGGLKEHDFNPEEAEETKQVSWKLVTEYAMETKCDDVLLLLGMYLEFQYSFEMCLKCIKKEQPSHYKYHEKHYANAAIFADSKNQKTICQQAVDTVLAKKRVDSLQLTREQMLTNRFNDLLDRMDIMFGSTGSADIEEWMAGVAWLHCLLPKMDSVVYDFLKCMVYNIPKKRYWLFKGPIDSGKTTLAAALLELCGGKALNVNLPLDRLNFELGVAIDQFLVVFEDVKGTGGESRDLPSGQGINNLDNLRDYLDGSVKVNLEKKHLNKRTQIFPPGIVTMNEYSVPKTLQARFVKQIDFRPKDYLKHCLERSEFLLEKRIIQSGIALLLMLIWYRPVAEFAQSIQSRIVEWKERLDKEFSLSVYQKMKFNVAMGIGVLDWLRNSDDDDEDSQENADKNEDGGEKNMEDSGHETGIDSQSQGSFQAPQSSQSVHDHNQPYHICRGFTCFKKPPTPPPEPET
Sequence of Cytochrome P450 2C19 (P33261 whole entry): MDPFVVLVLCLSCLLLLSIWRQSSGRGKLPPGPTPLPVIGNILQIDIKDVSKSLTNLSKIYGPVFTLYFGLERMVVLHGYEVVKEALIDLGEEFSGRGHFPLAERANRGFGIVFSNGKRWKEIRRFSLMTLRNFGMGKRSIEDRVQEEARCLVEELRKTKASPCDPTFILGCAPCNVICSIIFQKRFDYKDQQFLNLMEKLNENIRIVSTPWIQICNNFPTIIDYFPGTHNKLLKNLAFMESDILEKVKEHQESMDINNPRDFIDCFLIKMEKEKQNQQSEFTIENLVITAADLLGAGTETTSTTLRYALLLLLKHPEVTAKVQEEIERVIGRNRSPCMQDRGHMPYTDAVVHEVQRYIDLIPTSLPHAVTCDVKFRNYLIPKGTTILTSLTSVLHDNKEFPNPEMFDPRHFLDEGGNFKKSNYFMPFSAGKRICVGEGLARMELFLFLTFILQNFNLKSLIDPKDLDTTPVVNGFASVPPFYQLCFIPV
Sequence of Luciferin 4-monooxygenase (P08659 whole entry): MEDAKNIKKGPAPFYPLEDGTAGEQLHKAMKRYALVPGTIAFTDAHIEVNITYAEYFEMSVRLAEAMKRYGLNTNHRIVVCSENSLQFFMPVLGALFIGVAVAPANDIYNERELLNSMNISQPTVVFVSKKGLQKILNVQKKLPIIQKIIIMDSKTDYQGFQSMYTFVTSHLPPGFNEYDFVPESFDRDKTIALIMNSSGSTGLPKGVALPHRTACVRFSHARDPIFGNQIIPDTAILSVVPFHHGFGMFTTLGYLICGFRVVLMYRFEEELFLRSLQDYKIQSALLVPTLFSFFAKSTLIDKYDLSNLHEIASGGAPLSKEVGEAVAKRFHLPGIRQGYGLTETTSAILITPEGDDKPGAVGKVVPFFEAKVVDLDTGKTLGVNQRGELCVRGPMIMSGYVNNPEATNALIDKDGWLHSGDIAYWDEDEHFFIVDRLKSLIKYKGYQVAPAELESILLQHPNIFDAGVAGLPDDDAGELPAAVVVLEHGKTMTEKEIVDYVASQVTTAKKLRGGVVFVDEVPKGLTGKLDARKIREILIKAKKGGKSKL
Sequence of Paired box protein Pax-8 (Q06710 whole entry): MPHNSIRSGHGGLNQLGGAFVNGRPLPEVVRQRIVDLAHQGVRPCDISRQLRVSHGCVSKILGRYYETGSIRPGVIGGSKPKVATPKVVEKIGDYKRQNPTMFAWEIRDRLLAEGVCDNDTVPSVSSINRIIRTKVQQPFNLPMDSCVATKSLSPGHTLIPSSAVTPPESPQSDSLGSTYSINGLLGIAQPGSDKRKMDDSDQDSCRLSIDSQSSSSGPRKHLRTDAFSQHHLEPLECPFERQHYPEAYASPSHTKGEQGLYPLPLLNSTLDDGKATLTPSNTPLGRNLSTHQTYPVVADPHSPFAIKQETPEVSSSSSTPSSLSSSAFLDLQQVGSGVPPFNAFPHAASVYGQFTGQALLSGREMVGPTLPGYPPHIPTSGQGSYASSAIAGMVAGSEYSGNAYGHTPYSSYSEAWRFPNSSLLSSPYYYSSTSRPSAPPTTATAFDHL

Turning to `O=S(=O)(c1ccc(NC(=S)N2CCN(c3ccc(O)cc3)CC2)cc1)N1CCOCC1`, in assay [1], the half-inhibitory concentration (IC50) was 9.69 µM (active).
On to `Cc1cccc(NC(=O)CN2C(=O)N/C(=C/c3ccc(C)o3)C2=O)c1`, for which the IC50 in assay [2] is < 0.4 µM (not active).
On to `CCc1ccc(CNC(=O)C2CCCN(c3nnc(C)c4c(C)n(-c5ccccc5)nc34)C2)cc1` (stereo not drawn), for which the concentration giving a half-maximal response (EC50) in assay [3] was 14.7 µM (inconclusive). For the same molecule, the half-maximal activity concentration (AC50) in assay [4] is 9.17 µM (active).
Take `N#C/C(=C(\O)Cc1ccccc1)c1nc2ccccc2[nH]1`: the AC50 in assay [5] is > 70 µM (inactive); in assay [6] it was 23.2 µM (active).
`CCCc1nc(SC2CCCC2)c2c(=O)n(C)c(=O)n(C)c2n1`: the 50% effective concentration (EC50) in [7] was 4.73 µM (active).
`CN(C)c1ccc(C(=O)c2ccc(N(C)C)c(N)c2)cc1N`: the IC50 in assay [1] was 19.3 µM (active).
Turning to `Cc1ccc(C(=O)Nc2ccc(N3CCCC3)cc2)c(C)c1`, the IC50 in assay [2] was 7.06 µM (not active).
Take `CCCCCc1nc2c(O)nc3ccccc3c2o1`: in assay [2], the half-maximal inhibitory concentration (IC50) is given as 28.3 µM (not active). For the same molecule, in assay [8], the concentration at half-maximal activity (AC50) is 3.98 µM (inconclusive).
Consider `O=C(Nc1ccccc1N1CCN(C(=O)c2ccc(Cl)cc2)CC1)c1cccc([N+](=O)[O-])c1`, for which the EC50 was > 260 µM (inactive) in [9], 1.34 µM (active) in assay [10], 0.376 µM (active) in assay [7] and > 60 µM (not active) in [11].
For `CC1CCN(C(C)C(=O)Nc2ccccc2-c2ccccc2)CC1` (stereo not drawn), the IC50 in assay [12] was > 100 µM (inactive). Also, the EC50 in [7] was 5.31 µM (active).
Regarding `CC(C)Cc1cc(CN2CCCC(CO)(Cc3cccc(Cl)c3)C2)[nH]n1` (stereo not drawn), in assay [7], the EC50 was 2.11 µM (active).
For `CCn1nc(C)c(CN2CCCC(CO)(Cc3cccc(Cl)c3)C2)c1C` (stereo not drawn), the EC50 in [10] is 0.247 µM (active); in assay [7], 1.06 µM (active); in assay [11] it was > 30 µM (not active).
On to `COc1ccccc1C(=O)N=Nc1c(O)[nH]c2ccc([N+](=O)[O-])cc12`, for which the half-inhibitory concentration (IC50) in assay [2] was 2.92 µM (active).
Consider `Cc1ccc(C(=O)C2=C(O)C(=O)N(Cc3cccnc3)C2c2ccc(Cl)c(Cl)c2)o1` (stereo not drawn), for which the EC50 in assay [7] is 6.68 µM (active).
Take `CC/C(=N\c1ccccc1O)C1=C(O)CC(c2ccccc2)CC1=O` (stereo not drawn): the IC50 in assay [1] was 15.2 µM (active).
Same read-out and setting: for `Cn1cccc1/C=N/N1CCN(Cc2ccccc2)CC1` the value was 17.6 µM (active).
In the case of `CCC(=O)N(C)C[C@@H]1Oc2cc(C#Cc3ccccc3)ccc2S(=O)(=O)N([C@@H](C)CO)C[C@H]1C`, the AC50 in assay [13] is 30.3 µM (active); in assay [14], 26.2 µM (active).
Taken in the same sequence, the figures for `Cc1ccc(S(=O)(=O)N(C)C[C@@H]2Oc3ccc(NC(=O)Cc4ccccc4)cc3CC(=O)N([C@H](C)CO)C[C@@H]2C)cc1` were 2.32 µM (active) and < 0.26 µM (active).
For the molecule `Cc1ccc(N/N=C/c2ccc3c(c2)OCCO3)cc1Cl`, the figures for the half-maximal effective concentration (EC50) in assay [3], in [15] and in [16] were 40.1 µM (active), > 112 µM (not active) and 21 µM (active), respectively.
For the molecule `O=C1CCCC(O)=C1/C=N/c1ccc(O)cc1`, the half-maximal inhibitory concentration (IC50) in assay [1] was 12.3 µM (active); in assay [17], 16.7 µM (active).
Turning to `COc1ccc2c3c([nH]c2c1)[C@@H](CO)N(C(=O)Nc1cccc(F)c1)CC31CN(CC2CCOCC2)C1`, the concentration at half-maximal activity (AC50) in assay [18] is 4.22 µM (active).
Regarding `C/C=C/c1ccc([C@H]2[C@H](CO)N(S(=O)(=O)Cc3ccccc3)C23CN(C(=O)C2CCCC2)C3)cc1`, the half-maximal activity concentration (AC50) in assay [18] is 5.3 µM (active).
With `COc1ccc(S(=O)(=O)N(C)C[C@H]2Oc3ncc(-c4ccncc4)cc3C(=O)N([C@H](C)CO)C[C@@H]2C)cc1`, in assay [18], the AC50 was 6.55 µM (active).
The same measure, in the same setting: then `COc1ccc(C#Cc2ccc3c(c2)[C@@H]2[C@@H](CCN2C(=O)C2CCC2)[C@H](CO)N3)cc1`, with 5.78 µM (active).

By IC50 is commonly meant the concentration that gives 50% inhibition. What is called EC50 is the concentration at which the effect is half-maximal. Usually AC50 stands for the midpoint of the concentration-response curve, whichever way the signal moves.
